Source: the METLIN SMRT retention time set (Domingo-Almenara et al. 2019)

Assay: gradient 5% acetonitrile 3 min, to 50% in 2 min, to 85% in 15 min, held 3 min, 100 µL/min
Details: column: Zorbax Extend-C18 2.1 x 50 mm; eluents: water / acetonitrile, 0.1% formic acid
How it was run: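 Each retention time is based on an adduct peak selected computationally and verified by manual inspection. Measurements used HPLC–quadrupole time-of-flight mass spectrometry in positive and negative ionization mode on mixtures of ~100 pure standards. Chromatography ran on a Zorbax Extend-C18 column (2.1 × 50 mm, 1.8 μm) at 100 μL/min with water and acetonitrile, each containing 0.1% formic acid, and dead and dwell volumes of 40 μL and 900 μL.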

For CCc1nc(-c2csc(S(=O)(=O)N3CCCC(C(=O)Nc4ccc(F)cc4)C3)c2)no1 (centres undefined), the RP-LC retention time was 1030 s.

Molecule Cc1cc(NC(=O)C(C)n2nc(-c3ccc(F)cc3)ccc2=O)on1 (centres undefined) has an RP-LC retention time of 735 s.

For COCCCNC(=O)N1CCCC1c1nc(-c2cccc(C)c2)no1 (centres undefined), the RP-LC retention time was 810 s.

Molecule C=C(C)COc1ccc2c(C)c(CCC(=O)N3CCN(c4ccccn4)CC3)c(=O)oc2c1C has an RP-LC retention time of 743 s.

Molecule Cc1c([C@@H](C)C2NC[C@@H](C)C[C@H]2O)ccc2c1C[C@@H]1[C@H]2CC=C2C[C@@H](O)CC[C@@]21C (some centres undefined) has an RP-LC retention time of 749 s.

With Cc1ccc(C)c(NC(=O)Cn2nc3c(Oc4ccc(C(C)C)cc4)nccn3c2=O)c1 the RP-LC retention time was 1080 s.

Molecule Cc1cccc(-c2noc(C3CCCN3S(=O)(=O)c3ccc(Cl)cc3C)n2)c1 (centres undefined) has an RP-LC retention time of 1300 s.

Work on COc1ccc2[nH]cc(CCN3CC(C(=O)Nc4ccc(Cl)cc4)CC3=O)c2c1 (centres undefined) yielded an RP-LC retention time of 829 s.

In the case of CCCCC(=O)Nc1ccc2nc(N3CCN(c4cc(Cl)ccc4C)CC3)cc(C(=O)O)c2c1, the RP-LC retention time is reported as 851 s.

In the case of CCOc1ccccc1CNC(=O)C1CCCN(c2ccc(=O)n(-c3ccc(C)c(Cl)c3)n2)C1 (centres undefined), the RP-LC retention time is reported as 828 s.

Work on Cc1nn(-c2ccc(F)cc2)c2nc(N3CCCC(C(=O)NCc4ccc(Cl)cc4)C3)sc12 (centres undefined) yielded an RP-LC retention time of 1190 s.

Molecule Cc1ccc2c(=O)c3c([nH]c2c1C)CCN(CC(=O)Nc1ccc2c(c1)OCCO2)C3 has an RP-LC retention time of 667 s.

CS(=O)(=O)N1CCc2ccc(C(=O)N3CCCCC3)cc21 gave an RP-LC retention time of 717 s.

Molecule Cc1ccc(NC(=O)CN2C(=O)CCCc3cc(S(=O)(=O)N4CCCC4)ccc32)c(C)c1 has an RP-LC retention time of 852 s.

For COCC1CN(C(=O)c2sccc2C)CC12CCNCC2 (centres undefined), the RP-LC retention time was 575 s.

For O=C(/C=C/C(=O)N1CCc2ccccc2C1)N1CCc2ccccc2C1, the RP-LC retention time was 888 s.

In the case of CCN1C(=O)c2cccnc2Sc2cc(NC(=O)c3cccnc3)ccc21, the RP-LC retention time is reported as 637 s.

In the case of CCOC(=O)C(=O)NCc1n[nH]c(=O)c2ccccc12, the RP-LC retention time is reported as 579 s.

Work on COc1ccc(C(=O)N(CC(=O)N(Cc2ccco2)CC2CCCO2)C(C)(C)C)cc1 (centres undefined) yielded an RP-LC retention time of 862 s.

Work on Cc1nn(-c2nc(-c3ccc(F)cc3)cs2)c(C)c1CC(=O)N1CCCC1 yielded an RP-LC retention time of 1030 s.

Cc1nn(C)c(C)c1CCN(C)C(=O)CC1=C2CCCCC2N(C(C)C)C1=O (centres undefined) showed an RP-LC retention time of 648 s.

For O=c1c2sccc2n(Cc2nc(-c3ccccc3)no2)c(=O)n1-c1ccc(F)cc1, the RP-LC retention time was 969 s.

Molecule CN(CCCNC(=O)c1ccc2c(c1)NC(=O)C1CCCCN21)C1CCCCC1 (centres undefined) has an RP-LC retention time of 623 s.

For CCc1csc(-c2cn(CC(=O)NCc3ccc(Cl)cc3)cn2)n1, the RP-LC retention time was 724 s.

In the case of O=C(Cc1cccc(Cl)c1)Nc1ccsc1-c1nnc(C2CC2)o1, the RP-LC retention time is reported as 1240 s.

Molecule COc1ccc(NC(=O)C2CCN(S(C)(=O)=O)c3cc(C)ccc3O2)cc1Cl (centres undefined) has an RP-LC retention time of 957 s.

COc1ccc(-n2c(=O)c(C(=O)NC3CCCC3)c(O)c3cccnc32)cc1 showed an RP-LC retention time of 1170 s.

Cc1ccc(C2Cn3cnc(C(=O)N4CCC(C(=O)NC(C)c5ccccc5)CC4)c3CO2)cc1 (centres undefined) gave an RP-LC retention time of 756 s.

Cc1nc(-c2ccc(N3CCN(C(=O)c4nn(C)c5ccccc45)CC3)nc2)sc1C gave an RP-LC retention time of 966 s.

Work on CCc1ccccc1NC(=O)N1CCC2(CC1)NC(=O)c1cccc(Cl)c1N2 yielded an RP-LC retention time of 766 s.

For Cc1cc(N2CCC(NC(=O)Nc3ccccc3)C2=O)ccc1F (centres undefined), the RP-LC retention time was 824 s.

O=C(NC1CCN(c2cc(-c3ccc(F)cc3)[nH]n2)C1)c1ccncc1 (centres undefined) showed an RP-LC retention time of 611 s.

Cc1ccccc1-c1nn2c(CSc3ccccc3)nnc2s1 showed an RP-LC retention time of 1030 s.

CSc1ccc(-c2nc3cnccn3c2Nc2cccc(C(=O)N3CCOCC3)c2)cc1 gave an RP-LC retention time of 704 s.

Molecule CC(=O)Nc1ccc(Br)cc1 has an RP-LC retention time of 680 s.

With CC(C)c1ccc(NC(=O)C2CCN(S(C)(=O)=O)c3ccccc3O2)cc1 (centres undefined) the RP-LC retention time was 930 s.

CCC(C)C(NC(=O)c1ccccn1)C(=O)Nc1nc2ccccc2[nH]1 (centres undefined) gave an RP-LC retention time of 715 s.

Molecule Cc1ccc(-c2cn3c(CC(=O)NC4CCCCCC4)csc3n2)cc1C has an RP-LC retention time of 894 s.

In the case of O=C(NC1CCN(c2cc(-c3ccc(F)cc3)[nH]n2)C1)c1cccs1 (centres undefined), the RP-LC retention time is reported as 699 s.

For CC(=O)c1ccc(-n2ccc3c(cnc4c(-c5ccccc5)c(C)nn43)c2=O)cc1, the RP-LC retention time was 969 s.

Molecule COc1ccc(C2(C(=O)N3CCC([C@H]4[C@@H](OC)C(=O)N4C(C)C)CC3)CC2)cc1 has an RP-LC retention time of 776 s.

Molecule O=C(NCC1CCOCC1)Nc1ccccc1Br has an RP-LC retention time of 740 s.

In the case of Cc1ccc(CCNS(=O)(=O)c2ccc3c(c2)CCCC(=O)N3)cc1, the RP-LC retention time is reported as 789 s.

Molecule CC(=O)N1C[C@@H]2CCCN3CCC[C@@H]([C@H]23)[C@H]1CCCC(=O)NCCC(C)C has an RP-LC retention time of 583 s.

For CCc1cccc(NC(=O)N(C)CC2CCOCC2)c1, the RP-LC retention time was 795 s.

Work on N#Cc1cccc(NC(=O)Cn2nc3n(c2=O)CCCC3)c1 yielded an RP-LC retention time of 638 s.

CCC(=O)N1CCc2cc(C(=O)N(C)C)ccc21 showed an RP-LC retention time of 673 s.

O=C(CCc1nnn2c1CN(C(=O)c1ccccc1)CC2)NC1CC1 gave an RP-LC retention time of 604 s.

CCC(=O)NCc1nc2c(n1C)CN(C(=O)c1cccc(Br)c1)CC2 showed an RP-LC retention time of 591 s.

With COc1ccccc1-n1nnc(C(=O)NCc2nc3ccccc3n2C)c1-c1ccccn1 the RP-LC retention time was 574 s.

CC1CN=C2C(N3CCN(C(=O)c4ccc(C#N)cc4)CC3)=NC=CN21 (centres undefined) gave an RP-LC retention time of 678 s.

For CN1CCn2cc(S(=O)(=O)Nc3cccc(F)c3)cc2C1=O, the RP-LC retention time was 687 s.

Cc1cccc(S(=O)(=O)Nc2cc(-c3cn4cccc(C)c4n3)ccc2C)c1 gave an RP-LC retention time of 695 s.

In the case of CCC1=NS(=O)(=O)c2cccnc2N1c1ccc(Br)c(C)c1, the RP-LC retention time is reported as 986 s.

In the case of COc1ccc(N2C=C(C#N)S(=O)(=O)c3cc(F)ccc32)c(OC)c1, the RP-LC retention time is reported as 893 s.

In the case of O=C(Cn1nc(N2CCOCC2)c2ccccc2c1=O)Nc1ccc(F)cc1Cl, the RP-LC retention time is reported as 816 s.

O=C(Cc1ccccc1F)Nc1ccc(-c2cn3c(C(=O)N4CCCC4)csc3n2)cc1 showed an RP-LC retention time of 791 s.

With Cc1cc(C(=O)N2CCC(N3CCCCC3)CC2)c2cc(Br)ccc2n1 the RP-LC retention time was 586 s.

O=C(Cn1ccc2sccc2c1=O)Nc1ccc(F)cc1 showed an RP-LC retention time of 728 s.

CCCn1c(C)cnc1C1CCN(S(=O)(=O)c2ccc3c(c2)CCC3)C1 (centres undefined) gave an RP-LC retention time of 564 s.

CCC(C(=O)Nc1ccc(OC)cc1)n1cnc2nc3c(cc2c1=O)CCCC3 (centres undefined) gave an RP-LC retention time of 770 s.

With O=C(c1cn(-c2cc(N3CCCCC3)ncn2)cn1)N1CCCC1 the RP-LC retention time was 772 s.

CCCCS(=O)(=O)NC1CCCC(OC(=O)Nc2ccc(F)cc2)C1 (centres undefined) showed an RP-LC retention time of 883 s.

For COc1ccc(-c2noc(C3CCCN3C(=O)NCc3ccco3)n2)cc1 (centres undefined), the RP-LC retention time was 855 s.

With CN1C(=O)c2ccccc2Oc2ccc(C(=O)N3CCC4(CC3)OCCO4)cc21 the RP-LC retention time was 741 s.

Work on Cc1ccc(Sc2nccnc2N2CCCC(C(=O)NCc3ccccn3)C2)cc1 (centres undefined) yielded an RP-LC retention time of 766 s.

CCOc1ccc(-c2noc(Cn3ccnc3)n2)cc1 showed an RP-LC retention time of 635 s.

In the case of O=[N+]([O-])c1c(NCCCO)cc(Nc2ccc(F)cc2)c2nonc12, the RP-LC retention time is reported as 676 s.

Work on Cc1ccc(Nc2cc(N3CCN(C(=O)COc4ncccn4)CC3)nc(C)n2)cc1 yielded an RP-LC retention time of 563 s.

CN(C)S(=O)(=O)c1ccc(-c2nnc(C(=O)NCc3cc(F)cc(F)c3)o2)cc1 gave an RP-LC retention time of 878 s.

COc1ccc(-c2nn(CCCC(=O)NCCc3ccc(C)cc3)c(=O)c3noc(C)c23)cc1 showed an RP-LC retention time of 950 s.

In the case of Cc1noc(-c2nn(C)c3c2CN(C(=O)NC(C)C)CC3)n1, the RP-LC retention time is reported as 640 s.

Molecule Cc1cc(C)n(-c2cc(N3CCN(c4nc(-c5ccccc5)cs4)CC3)ccc2[N+](=O)[O-])n1 has an RP-LC retention time of 1190 s.

Work on CCCNC(=O)C1CCN(c2ccc(SCC(=O)Nc3ccc(N(CC)CC)cc3C)nn2)CC1 yielded an RP-LC retention time of 576 s.

For O=C(c1cc(-c2ccccc2)n[nH]1)N1CCN(c2cc(-c3ccccc3)ncn2)CC1, the RP-LC retention time was 609 s.

For CCOC(=O)c1cccc(N2C=C(C#N)S(=O)(=O)c3ccc(F)cc32)c1, the RP-LC retention time was 939 s.

CCc1nnc2cc(N3CCN(S(=O)(=O)c4ccc(C(C)C)cc4)CC3)cnn12 showed an RP-LC retention time of 820 s.

CN1CCN(c2ncncc2N2CCC(C(=O)N3CCN(c4ccccc4)CC3)CC2)CC1 gave an RP-LC retention time of 570 s.

Cc1cccc(NC(=O)N2CC(F)(F)C[C@H]2CN2CCCC2)c1C gave an RP-LC retention time of 647 s.

Work on CC(C)Cn1c(=O)c(C(=O)NCc2ccccc2)nc2cccnc21 yielded an RP-LC retention time of 915 s.

For Cc1cc(C)cc(N2CCC(NC(=O)c3ccc(Cl)s3)C2=O)c1 (centres undefined), the RP-LC retention time was 956 s.

Work on Cn1nc(-c2nc(-c3ccccc3F)no2)c2c1CCN(C(=O)C1CCCO1)C2 (centres undefined) yielded an RP-LC retention time of 770 s.

For CCc1nc(-c2csc(S(=O)(=O)N3CCC(C(=O)Nc4ccccc4CC)CC3)c2)no1, the RP-LC retention time was 1010 s.

CC(C)OC(=O)c1ncoc1-c1ccccc1C(=O)N1CCN(C2CCCCC2)CC1 showed an RP-LC retention time of 638 s.

With CCc1noc(NC(C)=O)c1-c1ccc(C)c(S(=O)(=O)NCc2ccccc2OC)c1 the RP-LC retention time was 827 s.

With CCn1cc(CCN2CCN(S(=O)(=O)c3cc(C)cc(C)c3)CC2)c2cccnc21 the RP-LC retention time was 698 s.

Molecule CC1CCN(C(=O)CN2C(=O)COc3ccc(C(=O)N4CCCC4)cc32)CC1 has an RP-LC retention time of 698 s.

Work on CCCN(CC1CCOC1)C(=O)Nc1ccccc1Cl (centres undefined) yielded an RP-LC retention time of 846 s.

Molecule CCn1nnc(NCc2ccc(-c3ccc(Br)cc3Cl)o2)n1 has an RP-LC retention time of 1120 s.
